“Also recorded” adds a separate entry of the source.
How the values were obtained:
[1] = system: P. cynomolgi hypnozoites; experiment: P. cynomolgi anti-hypnozoite assay in primary NHP hepatocytes (radical cure mode); format: cell-based; conditions: treatment days 4 to 7 after infection, readout day 8
Method: Cryopreserved primary cynomolgus monkey hepatocytes (lot STX) and hepatocyte culture medium (HCM) (InVitroGro CP medium) were obtained from BioIVT Inc. (Baltimore, MD, USA) and thawed following the manufacturer’s recommendations. Hepatocytes were seeded in 384-well collagen-coated plates and used for experiments within 2 days after seeding as previously described ([52]). Infectious sporozoites were obtained from Anopheles dirus mosquitoes infected with P. cynomolgi B strain and were used to infect the plated primary NHP hepatocytes 2 days after seeding ([52], [102]). HCM was changed the day after infection and every other day thereafter until drug treatment. […]
Imaging and image analysis of assay plates were completed using an Operetta CLS high-content imaging system and Harmony 4.9 software (PerkinElmer, Waltham, MA, USA). […] Using similar methodology described previously, parasites were counted with the TRITC channel and were identified by area, mean intensity, maximum intensity, and cell roundness parasites ([50], [99]–[102]). […] Percent inhibition (PI) and toxicity values were calculated relative to in-plate negative controls for parasites and hepatocytes, respectively, using GraphPad Prism software (GraphPad Software Inc., USA, Windows version 9.5.1) using the average of experimental and biological replicates. […]

[2] = system: P. berghei; experiment: P. berghei luciferase and blood parasitemia model of causal prophylaxis; format: in vivo; conditions: for Mice survived: 31 days, n = 5
Method: Efficacy studies in the P. berghei mouse model of causal prophylaxis were conducted at the Walter Reed Army Institute of Research, Experimental Therapeutics Branch as previously described ([46]).
Luciferase-expressing P. berghei ANKA sporozoites were obtained from laboratory-reared female Anopheles stephens mosquitoes as previously described ([46]). Sporozoites were recovered by the method of Li et al. ([62]) and quantitated using a hemocytometer. Sporozoites isolated from the same batch of mosquitoes were inoculated into mice on the same day to control biological variability in sporozoite preparations. Each animal was inoculated IV in the tail vein with approximately 10,000 sporozoites suspended in 0.1-ml volume on day 0.
Age-matched, 40 young adult (7-week-old) female C57BL/6 albino mice were purchased from Charles River Laboratories (Frederick, MD). On arrival, animals were acclimated for 7 days in quarantine. Mice were housed and maintained at a temperature range of 64° to 79°F, 34 to 68% relative humidity, and a 12-hour light/dark cycle. Food and water were provided ad libitum. Animals were fed a standard rodent maintenance diet. All animal use, care, and handling was conducted under an IACUC-approved animal use protocol in an Association for Assessment and Accreditation for Laboratory Animal Care International (AAALACi)–accredited facility with a Public Health Services Animal Welfare Assurance and in compliance with the Animal Welfare Act and other federal statutes and regulations relating to laboratory animals.
TQ was dissolved at a stock concentration of 1 mg/ml in 25% hydroxy-β-cyclodextrin acidified to pH 5 with acetic acid and diluted in DPBS for final dosing solutions. Polymers for parenteral administration were prepared in DPBS at the final dosing concentrations. All drug concentrations were calculated per the free base molecular weights of TQ. TQ parent compounds were administered intragastrically via an intragastric feeder tube. Vehicle groups (0.1 ml of DPBS) and polymer groups were administered SC in the right flank. Free TQ, vehicle, and polymers were given as a single dose on day −1. In this model, the pSVCTQ doses studied were 5.0, 7.5, or 10 mg/kg TQ equivalent.
Whole-body IVIS imaging of bioluminescence activity from luciferase-expressing P. berghei–infected mice was performed using a PerkinElmer IVIS Spectrum. Mice were evaluated at 24, 48, and 72 hours after sporozoite inoculation to determine liver- and blood-stage malaria infection. Mice received luciferin (150 mg/kg, Gold Biotechnology, St. Louis, MO) intraperitoneally in a maximal volume of 150 μl. Three minutes after luciferin administration, the mice were anesthetized with inhaled isoflurane and positioned ventral side up in the IVIS Spectrum on a 37°C platform. The mice continued to receive isoflurane through nose cone delivery. The camera exposure times used were 1 or 5 min for the 24-, 48-, and 72-hour time points with f-stop = 1, and the large binning setting was chosen. Quantitative analysis of bioluminescence emitted from whole bodies or […] (ROI) were determined by measuring the luminescence signal intensity in photons per second using the ROI settings of the Living Image 3.0 software. The ROI, expressed in total flux of photons, was set to measure the abdominal area at the location of the liver from whole-body imaging ([62]). The data were generally found to fit a normal distribution. Means and SDs of photon measurement were calculated.
On days 5 to 31 after infection, mice were analyzed for blood-stage infections by quantitation of malaria parasites in erythrocytes by flow cytometry. Blood (3 μl) from the mouse tail was collected directly into 0.3 ml of 1% heparinized isotonic buffer (PBS saline). After addition of 1 ml of 0.04% of glutaraldehyde for fixation, the samples were incubated at 4°C for 60 min. Cells were centrifuged at 450g for 5 min. […]

Substance: p(GalNAc-MA-co-SVCTQ-MA) [pSVCTQ]
- IC50 [1]: 25.6 µM
- Mice survived ([2]; 5 mg/kg SC, single dose day −1): 2/5
- Blood parasitemia suppression ([2]; 5 mg/kg TQ equivalent SC, single dose day −1): partial suppression of parasitemia
- Mice survived ([2]; 7.5 mg/kg SC, single dose day −1): 4/5
- Mice survived ([2]; 10 mg/kg SC, single dose day −1): All mice survived
- Mice survived ([2]; 10 mg/kg SC, single dose day −1, listed as SVCTQ polymer): 5/5
- Causal prophylaxis (complete parasite suppression) ([2]; 10 mg/kg TQ equivalent SC, single dose day −1): 100%
- IVIS signal during days 1 to 3 ([2]; 10 mg/kg single dose day −1, pSVCTQ SC, TQ oral): completely suppressed
- Activity compared to oral TQ (based on the TQ equivalent dose) ([2]; P. berghei prophylactic model, single dose day −1): approximately twofold; also recorded: approximately twice

From publication PMC11029812, “Liver-targeted polymeric prodrugs delivered subcutaneously improve tafenoquine therapeutic window for malaria radical cure” (Science Advances, 2024)
